Reference: ChEMBL document CHEMBL4811264, “Design and synthesis of novel diosgenin-triazole hybrids targeting inflammation as potential neuroprotective agents” (Bioorg Med Chem Lett, 2021)

Tests used:
SH-SY5Y [1] = assay: Neuroprotective activity against oxygen glucose-deprivation induced toxicity in human SH-SY5Y cells at 10 uM relative to control; format: functional
RAW264.7 [2] = assay: Antiinflammatory activity in mouse RAW264.7 cells assessed as inhibition of LPS-induced NO production at 10 uM relative to control; format: functional
RAW264.7 [3] = assay: Cytotoxicity against mouse RAW264.7 cells assessed as decrease in cell viability by MTT assay; format: cell-based
SH-SY5Y [4] = assay: Neuroprotective activity against oxygen glucose-deprivation induced toxicity in human SH-SY5Y cells at […] relative to control; format: functional

## C[C@@H]1CC[C@@]2(OC1)O[C@H]1C[C@H]3[C@@H]4CC=C5C[C@@H](O)CC[C@]5(C)[C@H]4CC[C@]3(C)[C@H]1[C@@H]2C [DISOGENIN]
SH-SY5Y [1]
  Activity: 3.5%
RAW264.7 [2]
  inhibition at 10 µM: 5.9%

## COc1ccc(-n2cc(COc3ccc4c(c3)CC[C@@H]3[C@@H]4CC[C@]4(C)[C@@H]5[C@H](C[C@@H]34)O[C@]3(CC[C@@H](C)CO3)[C@H]5C)nn2)cc1
SH-SY5Y [1]
  Activity: 40.1%
RAW264.7 [2]
  inhibition at 10 µM: 9.9%

## C[C@@H]1CC[C@@]2(OC1)O[C@H]1C[C@H]3[C@@H]4CCc5cc(OCc6cn(Cc7ccccc7)nn6)ccc5[C@H]4CC[C@]3(C)[C@H]1[C@@H]2C
SH-SY5Y [1]
  Activity: 35.5%
RAW264.7 [2]
  inhibition at 10 µM: 23.5%

## Cc1ccc(Cn2cc(COc3ccc4c(c3)CC[C@@H]3[C@@H]4CC[C@]4(C)[C@@H]5[C@H](C[C@@H]34)O[C@]3(CC[C@@H](C)CO3)[C@H]5C)nn2)cc1
SH-SY5Y [1]
  Activity: 34.1%
RAW264.7 [2]
  inhibition at 10 µM: 35.6%

## C[C@@H]1CC[C@@]2(OC1)O[C@H]1C[C@H]3[C@@H]4CCc5cc(OCc6cn(Cc7ccccc7F)nn6)ccc5[C@H]4CC[C@]3(C)[C@H]1[C@@H]2C
SH-SY5Y [1]
  Activity: 12.1%
RAW264.7 [2]
  inhibition at 10 µM: 14.2%

## C[C@@H]1CC[C@@]2(OC1)O[C@H]1C[C@H]3[C@@H]4CCc5cc(OCc6cn(Cc7ccc(F)cc7)nn6)ccc5[C@H]4CC[C@]3(C)[C@H]1[C@@H]2C
SH-SY5Y [1]
  Activity: 50.7%
RAW264.7 [2]
  inhibition at 10 µM: 19.7%

## COc1ccc(Cn2cc(COc3ccc4c(c3)CC[C@@H]3[C@@H]4CC[C@]4(C)[C@@H]5[C@H](C[C@@H]34)O[C@]3(CC[C@@H](C)CO3)[C@H]5C)nn2)cc1
SH-SY5Y [1]
  Activity: 73.9%
RAW264.7 [2]
  inhibition at 10 µM: 40.4%

## Cc1ccc(-n2cc(COc3ccc4c(c3)CC[C@@H]3[C@@H]4CC[C@]4(C)[C@@H]5[C@H](C[C@@H]34)O[C@]3(CC[C@@H](C)CO3)[C@H]5C)nn2)cc1
SH-SY5Y [1]
  Activity: 3.3%

## COc1ccc2c(c1)c(CC(=O)O)c(C)n2C(=O)c1ccc(Cl)cc1 [INDOMETHACIN]
RAW264.7 [2]
  inhibition at 10 µM: 34.9%

## C[C@@H]1CC[C@@]2(OC1)O[C@H]1C[C@H]3[C@@H]4CCc5cc(OCc6cn(-c7cc(F)cc(F)c7)nn6)ccc5[C@H]4CC[C@]3(C)[C@H]1[C@@H]2C
SH-SY5Y [1]
  Activity: 71.4%

## C[C@@H]1CC[C@@]2(OC1)O[C@H]1C[C@H]3[C@@H]4CCc5cc(OCc6cn(-c7ccccc7C#N)nn6)ccc5[C@H]4CC[C@]3(C)[C@H]1[C@@H]2C
SH-SY5Y [1]
  Activity: 81.2%
RAW264.7 [3]
  Activity: Toxic

## CC(=O)N[C@@H](CS)C(=O)O [ACETYLCYSTEINE]
SH-SY5Y [4]
  Activity: 84.3%

## C[C@@H]1CC[C@@]2(OC1)O[C@H]1C[C@H]3[C@@H]4CCc5cc(OCc6cn(Cc7cccc(F)c7)nn6)ccc5[C@H]4CC[C@]3(C)[C@H]1[C@@H]2C
SH-SY5Y [1]
  Activity: 51.6%
RAW264.7 [2]
  inhibition at 10 µM: 30.6%

## C[C@@H]1CC[C@@]2(OC1)O[C@H]1C[C@H]3[C@@H]4CCc5cc(OCc6cn(-c7ccccc7)nn6)ccc5[C@H]4CC[C@]3(C)[C@H]1[C@@H]2C
SH-SY5Y [1]
  Activity: 12.1%

## C[C@@H]1CC[C@@]2(OC1)O[C@H]1C[C@H]3[C@@H]4CCc5cc(OCc6cn(Cc7ccc(C#N)cc7)nn6)ccc5[C@H]4CC[C@]3(C)[C@H]1[C@@H]2C
SH-SY5Y [1]
  Activity: 57.6%
RAW264.7 [2]
  inhibition at 10 µM: 11.9%

## C[C@@H]1CC[C@@]2(OC1)O[C@H]1C[C@H]3[C@@H]4CCc5cc(OCc6cn(Cc7cc(F)c(F)cc7F)nn6)ccc5[C@H]4CC[C@]3(C)[C@H]1[C@@H]2C
SH-SY5Y [1]
  Activity: 16.5%

## C[C@@H]1CC[C@@]2(OC1)O[C@H]1C[C@H]3[C@@H]4CCc5cc(OCc6cn(Cc7ccc(C(F)(F)F)cc7)nn6)ccc5[C@H]4CC[C@]3(C)[C@H]1[C@@H]2C
SH-SY5Y [1]
  Activity: 66.4%
RAW264.7 [2]
  inhibition at 10 µM: 9.5%

## CCCn1cc(COc2ccc3c(c2)CC[C@@H]2[C@@H]3CC[C@]3(C)[C@@H]4[C@H](C[C@@H]23)O[C@]2(CC[C@@H](C)CO2)[C@H]4C)nn1
SH-SY5Y [1]
  Activity: 73.9%
